Our source for the dose-dependent inhibition values is publication PMC11678777, “Haloperidol-Induced Catalepsy and Its Correlations with Acetylcholinesterase Activity in Different Brain Structures of Mice” (Neurology International, 2024).

This assay has as its target T1, commercial enzyme AChE from Electrophorus electricus (Electrophorus electricus, UniProt O42275).
T1 construct: commercial enzyme (Sigma), native
Description: Ellman assay, […] nm, 96-well plate. The format is biochemical. As to conditions: AChE 1 U/mL; phosphate buffer 0.1 mol/L pH 8.0; 10 µL of 20 mmol/L acetylthiocholine iodide in 200 µL; 10 min preincubation, room temperature; Haldol formulation.

Each structure is given as a SMILES string.

T1 sequence (O42275 24-633): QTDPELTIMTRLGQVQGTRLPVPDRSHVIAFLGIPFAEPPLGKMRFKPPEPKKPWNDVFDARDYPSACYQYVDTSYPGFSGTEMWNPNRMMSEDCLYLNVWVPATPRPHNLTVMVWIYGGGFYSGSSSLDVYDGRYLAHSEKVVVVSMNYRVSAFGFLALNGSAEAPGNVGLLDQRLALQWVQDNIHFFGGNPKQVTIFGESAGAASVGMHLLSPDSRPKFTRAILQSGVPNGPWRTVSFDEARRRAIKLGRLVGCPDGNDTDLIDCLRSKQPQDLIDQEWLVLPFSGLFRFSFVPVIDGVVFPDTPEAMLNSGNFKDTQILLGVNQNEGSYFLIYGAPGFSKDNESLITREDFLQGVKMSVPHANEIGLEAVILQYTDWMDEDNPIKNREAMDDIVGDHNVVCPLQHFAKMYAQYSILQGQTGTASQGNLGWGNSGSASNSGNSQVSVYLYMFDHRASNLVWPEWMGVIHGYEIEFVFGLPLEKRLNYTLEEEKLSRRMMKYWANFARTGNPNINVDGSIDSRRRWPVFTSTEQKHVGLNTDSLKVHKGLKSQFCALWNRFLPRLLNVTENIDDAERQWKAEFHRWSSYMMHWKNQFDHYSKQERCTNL

Consider `O=C(CCCN1CCC(O)(c2ccc(Cl)cc2)CC1)c1ccc(F)cc1` [Haloperidol], for which the dose-dependent inhibition result is listed as “Hal inhibited commercial AChE activity in a dose-dependent manner”.
